This passage reports IC50 results from patent US20070270421A1, “Novel pyridine Derivative and Pyrimidine Derivative (1)” (priority 2004, published 2007).

In this experiment the target is T1, HGFR (His6-HGFR cytoplasmic domain) (Homo sapiens, UniProt P08581).
T1 construct: made in house; host or cells: Spodoptera frugiperda Sf9 insect cells (baculovirus, pFastBac-HT)
Description: Inhibitory activity against HGFR tyrosine kinase activity (HTRF). Type of experiment: biochemical. Conditions: biotin-poly(GT), ATP, 30° C. 10 min, read-out: IC50 (concentration necessary to inhibit HGFR kinase activity by 50%). The source says:
The cytoplasmic domain of HGFR (Genbank Accession No. J02958) is a 1.3 kb DNA fragment beginning with Lys974 and including a stop codon, and described by Park et al. (Proc. Natl. Acad. Sci. U.S.A. 84(18), 6379-6383, 1987). The DNA fragment was isolated from the human placental cDNA library (purchased from Clontech) by PCR (TaKaRa Ex Taq™ Kit, purchased from TaKaRa) using two kinds of primers (SEQ ID NO: 1, 5′-[…]-3′ and SEQ ID NO: 2, 5′-[…]-3′, purchased from Invitrogen). The DNA fragment was cloned into a baculovirus transplace vector (pFastBac™-HT (purchased from GIBCO BRL)) to produce a recombinant construct. The construct was transfected into insect cells (Spodoptera frugiperda 9 (Sf9)) to produce a solution of HGFR transfected baculovirus (preparation of a recombinant baculovirus can be found in the standard text (Bac-to-Bac Baculovirus Expression System (GIBCO BRL)). The cloning of the other receptor tyrosine kinases and preparation of the recombinant baculovirus solutions were performed using a cytoplasmic fragment starting from Lys791 (VEGFR2, Genbank Accession No. L04947), a cytoplasmic fragment starting from Lys398 (FGFR1, Genbank Accession No. X52833) and a cytoplasmic fragment starting from Lys558 (PDGFRβ, Genbank Accession No. M21616) in stead of HGFR in the above method. EGFR was purchased from Sigma (Production No. E-2645).
To the suspension of Sf9 cells (3×10^8 cells) in SF-900II medium (purchased from Invitrogen) containing 2% FBS was added a solution of HGFR transfected baculovirus above (4 ml), followed by a shaking culture at 27° C. for 48 hrs. The cells infected with the HGFR transfected baculovirus were centrifuged at 1,000 rpm, 4° C. for 5 min to remove the supernatant. The precipitated infected cells were suspended in 80 ml of ice-cold PBS, and centrifuged at 1,000 rpm, 4° C. for 5 min to remove the supernatant. The precipitated infected cells were suspended in 40 ml of ice-cold Lysis Buffer (50 mM Tris-HCl (pH 8.5), 5 mM 2-mercaptoethanol, 100 mM KCl, 1 mM PMSF and 1% (v/v) NP-40). The suspension was centrifuged at 12,000 rpm, 4° C. for 30 min to provide a supernatant.
The supernatant was loaded onto an Ni-NTA agarose column (3 ml, purchased from Qiagen) equilibrated with 30 ml of Buffer A (20 mM Tris-HCl (pH 8.5), 5 mM 2-mercaptoethanol, 500 mM KCl, 20 mM imidazole and 10% (v/v) glycerol). The column was washed with 30 ml of Buffer A, 6 ml of Buffer B (20 mM Tris-HCl (pH 8.5), 5 mM 2-mercaptoethanol, 1 M KCl, and 10% (v/v) glycerol) and 6 ml of Buffer A in this order. Then, the column was eluted with 6 ml of Buffer C (20 mM Tris-HCl (pH 8.5), 5 mM 2-mercaptoethanol, 100 mM KCl, 100 mM imidazole, and 10% (v/v) glycerol) to provide a fraction. The fraction was entrapped in a dialysis membrane (purchased from Spectrum Laboratories), dialyzed at 4° C. overnight with 1 L of dialysis buffer (20 mM Tris-HCl (pH 7.5), 10% (v/v) glycerol, 1 mM dithiothreitol, 0.1 mM Na3VO4 and 0.1 mM EGTA), and stored at −80° C. until used. An aliquot of the dialyzed fraction was subjected to SDS electrophoresis, and then a recombinant protein (His6-HGFR, the HGFR cytoplasmic domain fused with six histidine at the N terminus) detected at a molecular weight of about 60 kDa when stained with Coomassie Brilliant Blue, was determined with regard to protein content using BSA (purchased from Sigma) as a standard. The VEGFR2 cytoplasmic domain, the FGFR1 cytoplasmic domain, and the PDGFRβ cytoplasmic domain were fused with six histidine at the N terminus by the similar method to produce respective recombinant proteins (His6-VEGFR2, His6-FGFR1, and His6-PDGFRβ). […]
A general note: In TR-FRET formats the signal depends on donor and acceptor labels being close together.

T1 sequence (P08581 956-1390 limits assumed): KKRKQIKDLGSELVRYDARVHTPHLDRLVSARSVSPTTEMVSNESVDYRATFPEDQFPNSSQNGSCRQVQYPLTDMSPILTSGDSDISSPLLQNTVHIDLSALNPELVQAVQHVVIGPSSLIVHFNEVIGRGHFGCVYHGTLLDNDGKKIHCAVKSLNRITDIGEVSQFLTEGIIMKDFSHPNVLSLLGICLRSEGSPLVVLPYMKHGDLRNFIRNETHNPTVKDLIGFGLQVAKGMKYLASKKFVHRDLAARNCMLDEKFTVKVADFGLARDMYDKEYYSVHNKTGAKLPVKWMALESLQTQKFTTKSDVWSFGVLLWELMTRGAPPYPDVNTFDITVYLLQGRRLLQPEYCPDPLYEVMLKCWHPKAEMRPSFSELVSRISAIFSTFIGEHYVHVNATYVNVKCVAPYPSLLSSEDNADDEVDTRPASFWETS

Consider `O=C(CC(=O)Nc1ccc(Oc2ccnc(NC(=O)N3CCOCC3)c2)cc1)Nc1ccc(F)cc1` [Example 71, N-(4-Fluorophenyl)-N′-(4-{2-[(morpholine-4-carbonyl)amino]pyridin-4-yloxy}phenyl)malonamide], for which the IC50 turned out to be 25 nM.
Next, `O=C(CC(=O)Nc1ccc(Oc2ccnc(NC(=O)N3CCC(N4CCCCC4)CC3)c2)cc1F)Nc1ccc(F)cc1` [Example 78, N-(4-Fluorophenyl)-N′-{2-fluoro-4-[({[4-(piperidin-1-yl)piperidin-1-yl]carbonyl}amino)pyridin-4-yloxy]phenyl}malonamide]: 130 nM; `CN(C)CCN1CCN(C(=O)Nc2cc(Oc3ccc(NC(=S)NC(=O)Cc4ccccc4)cc3F)ccn2)CC1` [Example 309, 2-{[4-(2-Dimethylaminoethyl)piperazin-1-yl]carbonylamino}-4-(2-fluoro-4-{3-[2-(phenyl)acetyl]thioureido}phenoxy)pyridine]: 54 nM; `O=C(Cc1ccc(F)cc1)NC(=S)Nc1ccc(Oc2cc(NC(=O)N3CCC(CN4CCC4)CC3)ncn2)c(F)c1` [Example 392, 4-(Azetidin-1-ylmethyl)piperidine-1-carboxylic acid [6-(2-fluoro-4-{3-[2-(4-fluorophenyl)acetyl]thioureido}phenoxy)pyrimidin-4-yl]amide]: 55 nM.
Next, `CN1CC(N2CCN(C(=O)Nc3cc(Oc4ccc(NC(=O)NC(=O)Cc5ccc(F)cc5)cc4F)ccn3)CC2)C1` [Example 383, 4-(1-Methylazetidin-3-yl)piperazine-1-carboxylic acid [4-(2-fluoro-4-{3-[2-(4-fluorophenyl)acetyl]ureido}phenoxy)pyridin-2-yl]amide]: 94 nM; `O=C(Cc1ccccc1)NC(=S)Nc1ccc(Oc2ccnc(NC(=O)N3CCC(N4CCOCC4)CC3)c2)c(F)c1` [Example 258, 4-{2-Fluoro-4-[3-(2-phenylacetyl)thioureido]phenoxy}-2-{[4-(morpholin-4-yl)piperidin-1-yl]carbonylamino}pyridine]: 100 nM; `CN(C)CCCN1CCC(N(C)C(=O)Nc2cc(Oc3ccc(NC(=S)NC(=O)Cc4ccc(F)cc4)cc3F)ncn2)CC1` [Example 221, 1-[1-(3-Dimethylaminopropyl)piperidin-4-yl]-3-[6-(2-fluoro-4-{3-[2-(4-fluorophenyl)acetyl]thioureido}phenoxy)pyrimidin-4-yl]-1-methylurea]: 170 nM.
Next, `O=C(Cc1ccccc1)NC(=S)Nc1ccc(Oc2ccnc(NC(=O)N3CC(N4CCCC4)C3)c2)c(F)c1` [Example 261, 3-(Pyrrolidin-1-yl)azetidine-1-carboxylic acid {4-[2-fluoro-4-(3-phenylacetylthioureido)phenoxy]pyridin-2-yl}amide]: 100 nM; `CC(C)C(=O)Nc1cc(Oc2ccc(NC(=O)CC(=O)Nc3ccc(F)cc3)c(F)c2)ccn1` [Example 76, N-(4-Fluorophenyl)-N′-[4-(2-isobutylylaminopyridin-4-yloxy)-2-fluorophenyl]malonamide]: 100 nM; `CN1CC(N2CCC(N(C)C(=O)Nc3cc(Oc4ccc(NC(=S)NC(=O)Cc5ccccc5)cc4F)ccn3)CC2)C1` [Example 330, 3-{4-[2-Fluoro-4-(3-phenylacetylthioureido)phenoxy]pyridin-2-yl}-1-methyl-1-[1-(1-methylazetidin-3-yl)piperidin-4-yl]urea]: 50 nM.
Take `CN1CC(N2CCC(N(C)C(=O)Nc3cc(Oc4ccc(NC(=S)NC(=O)Cc5ccc(F)cc5)cc4)ccn3)CC2)C1` [Example 331, 3-(4-{4-[3-(4-Fluorophenyl)acetylthioureido]phenoxy}pyridin-2-yl)-1-methyl-1-[1-(1-methylazetidin-3-yl)piperidin-4-yl]urea]: the IC50 was found to be 84 nM.
On to `O=C(Cc1ccc(F)cc1)NC(=S)Nc1ccc(Oc2ccnc(NC(=O)N3CCC(CN4CCC4)CC3)c2)cc1` [Example 394, 4-(Azetidin-1-ylmethyl)piperidine-1-carboxylic acid [4-(4-{3-[2-(4-fluorophenyl)acetyl]thioureido}phenoxy)pyridin-2-yl]amide], for which the IC50 came out at 45 nM.
With `CN(C)CCN1CCC(N(C)C(=O)Nc2cc(Oc3ccc(NC(=S)NC(=O)Cc4ccc(F)cc4)cc3)ccn2)CC1` [Example 194, 1-[1-(2-Dimethylaminoethyl)piperidin-4-yl]-3-[4-(4-{3-[2-(4-fluorophenyl)acetyl]thioureido}phenoxy)pyridin-2-yl]-1-methylurea], the IC50 came out at 62 nM.
As to `O=C(Cc1ccc(F)cc1)NC(=S)Nc1ccc(Oc2ccnc(NC(=O)N3CCC(N4CCC(O)CC4)CC3)c2)cc1` [Example 190, 2-{[4-(4-Hydroxypiperidin-1-yl)piperidin-1-yl]carbonylamino}-4-(4-{3-[2-(4-fluorophenyl)acetyl]thioureido}phenoxy)pyridine], the IC50 was found to be 60 nM.
Next, `CN(C)[C@H]1CCN(C(=O)Nc2cc(Oc3ccc(NC(=O)NC(=O)Cc4ccccc4)cc3F)ccn2)C1` [Example 250, 2-{[(3S)-3-Dimethylaminopyrrolidin-1-yl]carbonylamino}-4-{2-fluoro-4-[3-(2-phenylacetyl)ureido]phenoxy}pyridine]: 68 nM.
Regarding `O=C(Cc1ccccc1)NC(=O)Nc1ccc(Oc2ccnc(NC(=O)N3CCCC3)c2)cc1Cl` [Example 47, Pyrrolidine-1-carboxylic acid {4-[3-chloro-4-(3-phenylacetylureido)phenoxy]pyridin-2-yl}amide], the IC50 stood at 100 nM.
Regarding `O=C(Cc1ccccc1)NC(=S)Nc1ccc(Oc2ccnc(NC(=O)N3CCN(CCN4CCC4)CC3)c2)c(F)c1` [Example 397, 4-[2-(Azetidin-1-yl)ethyl]piperazine-1-carboxylic acid {4-[2-fluoro-4-(3-phenylacetylthioureido)phenoxy]pyridin-2-yl}amide], the IC50 is 55 nM.
Next, `CN1CCC(N2CCN(C(=O)Nc3cc(Oc4ccc(NC(=S)NC(=O)Cc5ccccc5)cc4F)ccn3)CC2)CC1` [Example 326, 4-{2-Fluoro-4-[3-(2-phenylacetyl)thioureido]phenoxy}-2-{[4-(1-methylpiperidin-4-yl)piperazin-1-yl]carbonylamino}pyridine]: 130 nM; `CN(C)C1CN(C(=O)Nc2cc(Oc3ccc(NC(=S)NC(=O)Cc4ccc(F)cc4)cc3F)ncn2)C1` [Example 208, 3-Dimethylaminoazetidine-1-carboxylic acid [6-(2-fluoro-4-{3-[2-(4-fluorophenyl)acetyl]thioureido}phenoxy)pyrimidin-4-yl]amide]: 50 nM.
Next, `CC(=O)N1CCC(N(C)C(=O)Nc2cc(Oc3ccc(NC(=S)NC(=O)Cc4ccc(F)cc4)cc3F)ccn2)CC1` [Example 301, 1-(1-Acetylpiperidin-4-yl)-3-[4-(2-fluoro-4-{3-[2-(4-fluorophenyl)acetyl]thioureido}phenoxy)pyridin-2-yl]-1-methylurea]: 28 nM.
Next, `CN(C)C[C@H]1CCN(C(=O)Nc2cc(Oc3ccc(NC(=S)NC(=O)Cc4ccc(F)cc4)cc3F)ncn2)C1` [Example 209, 4-{[(3R)-3-(Dimethylaminomethyl)pyrrolidin-1-yl]carbonylamino}-6-(2-fluoro-4-{3-[2-(4-fluorophenyl)acetyl]thioureido}phenoxy)pyrimidine]: 65 nM.
